“And” between values parts separate entries of the source, which are not always exact repeats. Identical values can stand only once. Like-named read-outs stand apart in the source and are kept apart here. Peptide text beside a SMILES is read from it. * marks the point of attachment. NH(4-amidinobenzyl) = N=C(N)c1ccc(CN*)cc1; X2 = N=C(N)NC/C=C/CN*

Data set [1] has as its system DU145 cells. The data set is described as follows: Stability following incubation with DU145 cells. The class given is in vitro ADME, human. How it is done: (§1) Multiple multi-Leu variants described in Table 1 were tested for their stability following incubation with DU145 cells, wherein their cellular stability and plasmatic half-life was measured.
(§2) Consequently, the multi-Leu peptide was further modified by the addition of amino acid analogues and/or with pseudo peptide bounds which increase the protection of the modified peptides from peptidase and protease degradation. Gains in stability were also measured in vitro in tumoral prostatic human cells (DU145). Increase in stability of the variants was also measured in vivo (FIG. 4).

In data set [2] the target is furin (Homo sapiens, UniProt P09958). As to the kind of experiment: Inhibition constant (Ki) for furin. The class given is biochemical.
furin, sequence (P09958 108-794): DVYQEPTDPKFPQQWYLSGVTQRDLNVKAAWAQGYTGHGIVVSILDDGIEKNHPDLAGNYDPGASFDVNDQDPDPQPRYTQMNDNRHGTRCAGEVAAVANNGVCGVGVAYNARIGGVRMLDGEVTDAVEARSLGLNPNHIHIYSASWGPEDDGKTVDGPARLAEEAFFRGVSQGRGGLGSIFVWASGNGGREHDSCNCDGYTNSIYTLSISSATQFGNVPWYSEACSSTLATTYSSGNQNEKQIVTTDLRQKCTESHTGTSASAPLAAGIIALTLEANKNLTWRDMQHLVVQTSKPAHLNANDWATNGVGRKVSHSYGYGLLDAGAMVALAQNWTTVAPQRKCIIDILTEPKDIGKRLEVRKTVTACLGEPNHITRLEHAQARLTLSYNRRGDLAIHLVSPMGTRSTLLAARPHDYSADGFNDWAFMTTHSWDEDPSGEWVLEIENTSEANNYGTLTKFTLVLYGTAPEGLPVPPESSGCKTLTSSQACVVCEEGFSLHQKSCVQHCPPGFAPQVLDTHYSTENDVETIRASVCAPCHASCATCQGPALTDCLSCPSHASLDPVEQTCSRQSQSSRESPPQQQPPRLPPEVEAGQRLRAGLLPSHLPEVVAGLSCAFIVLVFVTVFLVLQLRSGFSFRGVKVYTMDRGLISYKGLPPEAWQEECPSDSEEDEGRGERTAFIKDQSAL
The target in data set [3] is T1, PACE4 (Homo sapiens, UniProt P29122).
T1 sequence (P29122 150-969): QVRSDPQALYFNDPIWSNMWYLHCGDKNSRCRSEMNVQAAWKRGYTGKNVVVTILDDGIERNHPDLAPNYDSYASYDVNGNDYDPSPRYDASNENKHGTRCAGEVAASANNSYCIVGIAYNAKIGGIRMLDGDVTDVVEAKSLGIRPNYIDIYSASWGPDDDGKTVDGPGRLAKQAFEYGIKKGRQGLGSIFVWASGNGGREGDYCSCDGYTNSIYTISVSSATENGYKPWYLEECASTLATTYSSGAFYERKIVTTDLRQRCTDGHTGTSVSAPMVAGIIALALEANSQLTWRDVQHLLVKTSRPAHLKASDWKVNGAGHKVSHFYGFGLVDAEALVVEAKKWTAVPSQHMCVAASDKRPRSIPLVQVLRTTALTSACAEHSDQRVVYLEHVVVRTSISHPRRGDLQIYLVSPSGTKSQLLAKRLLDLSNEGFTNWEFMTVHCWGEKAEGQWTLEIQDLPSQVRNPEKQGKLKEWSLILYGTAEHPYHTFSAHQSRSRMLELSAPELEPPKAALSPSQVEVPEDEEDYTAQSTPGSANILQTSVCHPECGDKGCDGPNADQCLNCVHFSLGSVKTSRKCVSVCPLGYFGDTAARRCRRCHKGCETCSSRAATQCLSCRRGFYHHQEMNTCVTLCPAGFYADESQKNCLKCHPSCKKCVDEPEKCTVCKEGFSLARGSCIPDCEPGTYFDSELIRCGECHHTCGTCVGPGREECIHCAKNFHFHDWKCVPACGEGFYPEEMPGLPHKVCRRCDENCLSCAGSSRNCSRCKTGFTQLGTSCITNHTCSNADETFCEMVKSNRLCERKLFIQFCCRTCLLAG
The data set is described as follows: Inhibition constant (Ki) for PACE4. The class given is biochemical.

Data set [4] can be described thus: Stability following incubation with DU145 cells. The class given is in vitro ADME, human. Conditions: human, DU145 cells, Table 1, read-out: Stability (% remaining after 48 h). On the procedure:
as §1, §2

Data set [5] is described as follows: Plasmatic half-life / degradation by plasmatic protease. The class given is in vitro ADME. The note with it: for half-life: plasma. How it is done: as §1
Stabilisation strategy for multi-Leu variants was also assessed in presence of plasmatic protease. 8 variants protected at their N-terminal leucines were tested in order to establish their level of degradation since it is expected that N-terminal degradation will occur in absence of any modifications other than acetylation. Variants tested with azaβ3-leucine at each individual position and “click” bonds between the different leucines of the N-terminal part of the variants were protected against degradation (see FIG. 3 for modifications).

In data set [6] the test system is LNCaP cells. The data set is described as follows: Cell cycle analysis (DNA content, flow cytometry) of LNCaP cells. The class given is cell-based. The note with it: for Cell cycle effect (in words): 100 μM or 200 μM, FIG. 11; for Cells in G0/G1 phase / Cells in G2/M phase / Cells in S phase / Cells in Sub-G1 (hypodiploid DNA content, apoptotic): 96 hours. On the procedure: In order to obtain further support for the antiproliferation effects observed, a DNA content analysis was performed on LNCaP treated cells with 100 μM or 200 μM of ML-peptide and the modified analog […] (FIG. 11). […] Following a 200 μM treatment with the Ac-[D-Leu]LLLRVKR-NH2, a 10% increase in the G0/G1 population was observed along with an increased in cells with hypodiploid DNA content (sub-G1) proportions, which represent apoptotic cells.
To perform cell cycle analysis on LNCaP, 4×10^5 cells are seeded in 10 cm culture dish and grown for 24 hours without treatment. Cells are then treated with vehicle (0.1% DMSO) or with 100 μM or 200 μM of peptides Ac-LLLLRVKR-NH2 or Ac-[D-Leu]LLLRVKR-NH2. Treatments are carried out in complete medium (10% FBS) for a period of 96 hours and cell media is changed every 24 hours to offset peptide degradation. Cells are harvested using trypsin, washed once with PBS, resuspended in 0.5 mL PBS and fixed by drop wise addition of 1.5 mL of ice-cold ethanol. After a 30 minutes incubation at room temperature, cells are washed with PBS and DNA staining is performed in 20 mM HEPES pH 7.2, 0.16M NaCl, 1 mM EGTA buffer containing 10 μg/mL of RNAseA and 10 μg/mL of propidium iodine.
Flow cytometry is performed using a FACScan™ cytometer (Becton Dickinson, Mountain View, Calif.) equipped with a 15 mW argon ion laser tuned at 488 nm. A minimum of 10 000 gated events by sample are acquired. Forward and side scatter signals are used to establish the live gate to exclude debris and cell clumps and a second live gate is set using the FL3-A and FL3-W parameters of the doublet discrimination module (DDM), allowing single cell measurements. The percentages of cells in different phases of cell cycle are calculated by ModFit software (Verity Software House, Topsham, Me.).
On the technique in general: In flow cytometry, cells or beads pass a laser one at a time.

Data set [7] deals with DU145 cells. The note with it: MTT.
Data set [8] has as its system LNCaP tumors. The data set is described as follows: Intratumoral treatment of LNCaP tumors in immunosuppressed mice. The note with it: LNCaP tumors, FIG. 9.
Data set [9] deals with LNCaP cells. The note with it: MTT.
The nature of data set [10]: Fig. 4. An excerpt: Table printed on a drawing sheet, Fig. 4
The patent's description of the figure: FIG. 4 illustrates plasmatic half-life curves measured for multi-Leu variants tested.
First reader's note: The table also serves as legend for the numbered curves of the adjacent plot; the unit (h) and ± errors stand in the cells, with decimal commas as printed.

For data set [11], the system named is PC3 cells. As to the kind of experiment: MTT proliferation assay in PC3 cells. The class given is cell-based. The note with it: FIG. 1B. (Formazan colour is commonly taken as a measure of viable cells.)
Where [12] appears, read: read-out: IC50 (μM) DU145, Table 4, DU145 cells.

Regarding `CC(=O)N[C@@H](CC(C)C)C(=O)N[C@@H](CC(C)C)C(=O)N[C@@H](CC(C)C)C(=O)N[C@@H](CC(C)C)C(=O)N[C@@H](CCCN=C(N)N)C(=O)N[C@H](C(=O)N[C@@H](CCCCN)C(=O)NCc1ccc(C(=N)N)cc1)C(C)C` [ML-[AMBA]^P1, Ac-LLLLRVK-[AMBA]] (Ac-LLLLRVK-{NH(4-amidinobenzyl)}), the “Stability (% remaining after 48 h)” value in data set [1] (Table 1) and in data set [1] (Table 2) was “≃80%” in each case.

As usually defined, the Ki is the equilibrium dissociation constant of an inhibitor or competing ligand from its target. The term share remaining denotes what is left of the initial amount, in per cent. `CC(=O)N[C@@H](CC(C)C)C(=O)N[C@@H](CC(C)C)C(=O)N[C@@H](CC(C)C)C(=O)N[C@@H](CC(C)C)C(=O)N[C@@H](CCCNC(=N)N)C(=O)N[C@H](C(=O)N[C@@H](CCCCN)C(=O)NC/C=C/CNC(=N)N)C(C)C` [ML-[ΔR-CO2]^P1, Ac-LLLLRVK-[ΔR-COO]] (Ac-LLLLRVK-X2): the Ki in data set [2] (Table 3, read-out: Ki Furin) stood at 0.16 µM; in data set [3] (Table 1, read-out: Ki for PACE4), 14 nM. Besides, the “Selectivity for PACE4 over furin (time more selective)” value in [3] is 11.4. For the same molecule, the “Selectivity index PACE4/furin” value in data set [3] (Table 3) is recorded as 11.4. For the same molecule, the “Stability (% remaining after 48 h)” value in [1] (Table 2) is reported as 70%. Also, the amount remaining at 48 h in data set [4] is 70%.

In general, half-life refers to the time needed for the level to fall by half in the phase considered. A low value points to fast loss. In the case of `CC(=O)N[C@H](CC(C)C)C(=O)N[C@@H](CC(C)C)C(=O)N[C@@H](CC(C)C)C(=O)N[C@@H](CC(C)C)C(=O)N[C@@H](CCCNC(=N)N)C(=O)N[C@H](C(=O)N[C@@H](CCCCN)C(=O)N[C@@H](CCCNC(=N)N)C(N)=O)C(C)C` [[D-Leu]^P8-ML, Ac-[D-Leu]-LLLRVKR-NH2], the plasmatic half-life in data set [5] (Table 1) is given as 6.3 h. The values for the half-life in [5] (Table 1) and in data set [5] (Table 2) were around 9 h and 6.3 h, respectively. Besides, the “Cell cycle effect (in words)” value in data set [6] is “dose-dependant G0/G1 accumulation and S phase decrease”. Also, the “Cells in G0/G1 phase” value in [6] (100 μM) was 79.3 ± 1.0%; in [6] (200 μM), 83.4 ± 0.0%. The “Cells in G2/M phase” value in data set [6] (100 μM) was 8.9 ± 0.5%; in data set [6] (200 μM) it was 8.3 ± 0.1%. Also, the “Cells in S phase” value in data set [6] (100 μM) was determined as 11.8 ± 0.5%; in data set [6] (200 μM) it was 8.4 ± 0.1%. The “Cells in Sub-G1 (hypodiploid DNA content, apoptotic)” value in data set [6] (100 μM) amounted to 0.4 ± 0.6%; in data set [6] (200 μM), 11.8 ± 2.7%. Moreover, in [6] (200 μM treatment), the “Cells with hypodiploid DNA content (sub-G1) proportions (in words)” value is listed as “increased”. Further, in data set [6] (200 μM treatment), the “Increase in the G0/G1 population” value came to 10%. For the same molecule, the IC50 worked out at 66 ± 26 µM in [7] (setting [12]) and 181 ± 59 µM in data set [9] (read-out: IC50 (μM) LNCaP, Table 4, LNCaP cells). Also, the Ki is 0.516 µM in data set [2]; 3 nM in [3] (Ki PACE4 (nM), Table 3); 52 nM and 33 nM in data set [3] (Ki for PACE4, Table 1). Moreover, the “Plasmatic concentration of PSA (in words)” value in data set [8] is “decreased”. Further, in [3] (Table 3), the “Selectivity index PACE4/furin” value was “≈20”. For the same molecule, in [4], the share remaining at 48 h is 48%.

Regarding Ac-LLLLRVKR-NH2 [6: ML], the plasmatic half-life in data set [10] was 2,1±0,2h.

Regarding “Ac-LLLLRVKR-NH2 [Multi-Leu (ML), Ac-LLLLRVKR-NH2, reference compound]”, the half-life in [5] (Table 1) and in data set [5] (Table 2) was 2.1 ± 0.2 h in each case. Besides, the “Cell cycle effect (in words)” value in data set [6] was “dose-dependant G0/G1 accumulation and S phase decrease”. Also, the “Cells in G0/G1 phase” value was found to be 79.7 ± 0.4% in data set [6] (100 μM) and 81.5 ± 0.0% in [6] (200 μM). In addition, the “Cells in G2/M phase” value in data set [6] (100 μM) worked out at 8.4 ± 0.6%; in data set [6] (200 μM), 9.2 ± 0.1%. The “Cells in S phase” value in data set [6] (100 μM) was determined as 11.9 ± 0.2%; in [6] (200 μM), 9.3 ± 0.1%. The “Cells in Sub-G1 (hypodiploid DNA content, apoptotic)” value was 1.0 ± 0.0% in data set [6] (100 μM) and 4.8 ± 1.7% in data set [6] (200 μM). Further, the IC50 in [7] (setting [12]) was 187 ± 44 µM; in data set [7] (read-out: IC50 cellular proliferation DU145, FIG. 1B/1C), 103 ± 29 µM; in data set [9] (read-out: IC50 cellular proliferation LNCaP, FIG. 1B/1D), 180 ± 57 µM. The Ki amounted to 0.722 µM in data set [2] and 38 nM in [3] (Ki for PACE4, Table 1). The “Selectivity index PACE4/furin” value in [3] (Table 3) came to 19. The “Inhibition of PC3 cell proliferation (in words)” value in [11] is “very poor inhibition”. In data set [1] (Table 2), the “Stability (% remaining after 48 h)” value is recorded as 56%. Moreover, in data set [4], the share remaining at 48 h stood at 56%.

The values above are taken from US9809621B2, “Stable peptide-based PACE4 inhibitors” (SOCPRA SCIENCES SANTÉ ET HUMAINES S.E.C., priority 2011, dated 2017).
